Measured values published in patent publication US20240391930A1, “SPIROCYCLIC BICYCLIC MODULATORS OF CHOLESTEROL BIOSYNTHESIS AND THEIR USE FOR PROMOTING REMYELINATION” (GENENTECH, INC., priority 2021, published 2024).

Tests used:
[1] = tested on: zymostenol accumulation in EpiSC-derived OPCs (EBP); assay: GC/MS-based sterol profiling (zymostenol accumulation); type: cell-based; settings: Mus musculus, 24 hours, 8 doses from 0.15 nM to 333 nM, read-out: Zymostenol GCMS EC50
Description: (§1) To assess effects of treatments on OPCs, all treatments were assayed in two or more independent platings of epiblast stem cell-derived OPCs (EpiSC). EpiSC-derived OPCs were obtained using in vitro differentiation protocols and culture conditions described previously (Najm et al, 2011, Nature Methods). OPCs were expanded and frozen down in aliquots. OPCs were thawed into growth conditions for at least one passage before use in further assays.
Sterols were monitored using a modified Folch wash protocol (Hubler et al, 2018, Nature). EpiSC-derived OPCs were plated at 100,000 cells per well in PO- and laminin-coated 96-well plates in N2B27 media without growth factors. After 24 hours, cells were rinsed with saline and plates were frozen. Cholesterol-d7 standard was then added to each well before drying under nitrogen stream and derivatization with 55 μl of bis(trimethylsilyl) trifluoroacetamide. After derivatization, 2 μl were analyzed by gas chromatography/mass spectrometry using an Agilent 5973 Network Mass Selective Detector equipped with a 6890 gas chromatograph system and a HP-5MS capillary column (30 m×0.25 mm×[…]). Samples were analyzed in full scan mode using electron impact ionization; ion fragment peaks were integrated to calculate sterol abundance, and quantitation was relative to cholesterol-d7. The following ion fragments were used to quantitate each metabolite: cholesterol-d7 (465), FF-Mas (482), cholesterol (368), zymostenol (458), zymosterol (456), Desmosterol (456, 343), 7-dehydrocholesterol (456, 325), lanosterol (393), lathosterol (458), 14-dehydrozymostenol (456, 351). […] All standards were obtained from Avanti Polar Lipids unless otherwise indicated. Calibration curves were generated by injecting varying concentrations of sterol standards and maintaining a fixed amount of cholesterol-D7. For normalized zymostenol accumulation results, the total amount of zymostenol measured after drug treatment was divided by the total amount of zymostenol accumulated after 24 hr treatment with 100 nM positive control reference.

EpiSC-derived OPCs = assay: In vitro phenotypic screening of OPCs (MBP high-content imaging); type: cell-based; settings: Mus musculus, 72 h; percentage of MBP-positive oligodendrocytes, 3 days, 0.5 nM to 1000 nM; read-out: OPC EC50
Description: as §1
EpiSC-derived OPCs were grown and expanded in poly-L-ornithine (PO) and laminin-coated flasks in N2B27 media (DMEM/F12 (Gibco), N2-MAX (R&D Systems), B-27 (ThermoFisher), and GlutaMax (Gibco)) supplemented with FGF2 ([…], R&D systems, 233-FB-025) and PDGF-AA ([…], R&D systems, 233-AA-050) before harvesting for experiments. The cells were seeded onto poly-L-ornithine or poly-D-lysine coated CellCarrier Ultra plates (PerkinElmer) coated with laminin (Sigma, L2020) at a density of 150,000/cm^2 in N2B27 media without growth factors. For dose-response testing, a 1000× compound stock in dimethyl sulphoxide (DMSO) was added to assay plates, resulting in 8-point dose curves with final concentrations between 1000 nM and 0.5 nM. Positive controls and DMSO vehicle controls were included in each assay plate. Cells were incubated under standard conditions (37° C., 5% CO2) for 3 days and fixed with 4% paraformaldehyde (PFA) in phosphate buffered saline (PBS) for 20 min. Fixed plates were washed with PBS, permeabilized with 0.1% Triton X-100, and blocked with 10% donkey serum (v/v) in PBS for 40 min. Then, cells were labelled with MBP antibodies (Abcam, ab7349; 1:200) for 2 h at room temperature, washed with PBS, and stained with Alexa Fluor conjugated secondary antibodies (1:500) for 45 min. Nuclei were visualized by DAPI staining (Sigma; 1 μg/ml), followed by further PBS washes.
Cells and cell culture plates were imaged on the Operetta High Content Imaging and Analysis system (PerkinElmer). Analysis (PerkinElmer Harmony and Columbus software) began by identifying intact nuclei stained by DAPI. The peri-nuclear region of each cell was then cross-referenced with the […] (MBP) stain to identify oligodendrocyte nuclei, and from this the percentage of oligodendrocytes was calculated.

EC50 [1] | EC50 (EpiSC-derived OPCs) | Compound
3 nM | 3.3 nM | CC(C)(C)n1nc(C(F)(F)F)cc1[C@H]1[C@@H]2C[C@@H](N3CCC4(CC3)CS(=O)(=O)C4)C[C@@H]21 (single isomer, unassigned) [Compound 55]
45.1 nM | 58.4 nM | CC(C)n1nc(C(F)(F)F)cc1[C@H]1[C@@H]2C[C@@H](N3CCC[C@@]4(CCS(=O)(=O)C4)C3)C[C@@H]21 (single isomer, unassigned) [Compound 92*]
5.7 nM | 19 nM | CC(C)(C)n1nc(C(F)(F)F)cc1[C@H]1[C@@H]2C[C@H](N3CCC4(CC3)CS(=O)(=O)C4)C[C@@H]21 [Compound 56, 7-((1R,3r,5S,6r)-6-(1-(tert-butyl)-3-(trifluoromethyl)-1H-pyrazol-5-yl)bicyclo[3.1.0]hexan-3-yl)-2-thia-7-azaspiro[3.5]nonane 2,2-dioxide]
3.9 nM | 13 nM | CC(C)n1nc(-c2cccc(C(F)(F)F)c2)nc1[C@H]1[C@@H]2C[C@H](N3CCC4(CC3)CS(=O)(=O)C4)C[C@@H]21 [Compound 74, 7-((1R,3r,5S,6r)-6-(1-isopropyl-3-(3-(trifluoromethyl)phenyl)-1H-1,2,4-triazol-5-yl)bicyclo[3.1.0]hexan-3-yl)-2-thia-7-azaspiro[3.5]nonane 2,2-dioxide]
